From patent US10765716B2, “Obesity treatment” (priority 2017, dated 2020)

Assays:
Assay type in all cases: in vivo, male Wistar rats
[1] = tested on: high-fat diet induced obese rats; experiment: Therapeutic study: high-fat diet induced obese rats treated for 12 weeks (food intake, body weight, lipid profile, fasting blood glucose, leptin, insulin, histology); details: for average food intake (in words): therapeutic study 12 weeks, Orlistat (TO), Sibutramine (TS), extract (TC1 and TC2)
Method: (§1) The crude extracts of C. latifolia were suspended in distilled water before its administration to the rat models. Orlistat and Sibutramine were used as standard drugs at doses of 100 mg/kg, and 5 mg/kg, respectively (dissolved in distilled water).
(§2) Thirty male Wistar rats (210-220 g) were obtained from the animal house facility of Dr. Panjwani Center for Molecular Medicine and Drug Research (ICCBS). All animals were kept under standard conditions of temperature and humidity with a 12 h light/dark cycle, approved by the Ethical Committee of International Center for Chemical and Biological Sciences (Protocol number: 2013-0001). After one week of acclimation period, rats were randomly divided into […]. The control group was fed with normal diet (D12450B, Research Diets, USA), whereas the other groups were fed high-fat diet (D12451, Research Diets, USA) for a period of 16-week. After 10 weeks, biochemical parameters were evaluated regularly to establish whether the model has developed the symptoms of metabolic syndrome. […]
(§3) Body weights were recorded weekly throughout the experiment. The food intake was calculated by using following formula, as described by Ghezzi et al, 2012: […]
(§4) Blood glucose, serum insulin, total cholesterol, triglycerides, HDL, LDL, very low density lipoproteins […], urea, creatinine, aspartate aminotransferase […], alkaline phosphatase (ALP), serum glutamic pyruvic transaminase (SGPT), and direct and total bilirubin were estimated. Fasting blood glucose levels were measured using glucometer (AccuChek Performa, Australia). Fasting insulin levels were quantified using ultra sensitive rat insulin ELISA kit (Crystal Chem. Downers Grove, USA). Insulin sensitivity was evaluated using Homeostatic Model Assessment (HOMA). Serum total cholesterol, triglycerides, HDL, LDL, VLDL, urea, creatinine, AST, ALP, SGPT, and direct and total bilirubin were analyzed using automatic analyzer (Hitachi, Roche Diagnostics 902, Tokyo, Japan).

high fat diet rats = experiment: Preventive study: high fat diet rats given extract or standard drugs for 8 weeks (food intake, body weight, lipid profile, fasting blood glucose, liver histology); details: preventive study 8 weeks
Method: as §1, §2, §3, §4

[2] = tested on: high-fat diet induced obese rats; experiment: Renal and liver toxicity assessment after 12 weeks of treatment period
Method: Whereas for therapeutic studies the animal groups were as follow: Group 1 (TA), Control; animals in this group received LFD, and distilled water Group 2 (TC), Pathological control; animals in this group received HFD, and distilled water. Groups 3 (TO), High fat diet induced obese animals in this group received standard drug Orlistat (100 mg/kg/day). Group 4 (TS): High fat diet induced obese animals in this group received standard drug Sibutramine (5 mg/kg/day), Group 5 (TC1): High fat diet induced obese animals in this group received C. latifolia extract (150 mg/kg/day). Group 6 (FC2) High fat diet induced obese animals in this group received C. latifolia extract (300 mg/kg/day). […]
as §4, with “Serum total cholesterol, triglycerides, HDL, LDL, VLDL, urea, creatinine, AST, ALP, SGPT, and direct and total bilirubin were analyzed using automatic analyzer (Hitachi, Roche Diagnostics 902, Tokyo, Japan).” left out

SMILES | FBG (fasting blood glucose) ([1]; after 12 weeks of treatment, 5 mg/kg (TS)) | average food intake (in words) [1] | FBG (fasting blood glucose) (high fat diet rats; 5 mg/kg (PS)) | Triglyceride (high fat diet rats; serum, 5 mg/kg (PS)) | Direct bilirubin ([2]; liver toxicity, after 12 weeks of treatment, 5 mg/kg (TS)) | FBG (fasting blood glucose) (high fat diet rats; 100 mg/kg (PO)) | Direct bilirubin ([2]; rat, in vivo, 100 mg/kg)
CC(C)CC(N(C)C)C1(c2ccc(Cl)cc2)CCC1 (centres unmarked) [Sibutramine] | 80 ± 0.12 mg/dL | decrease | 76 ± 2.12 mg/dL | 51 ± 0.19 mg/dL | 0.03 ± 0.004 mg/dL |  | 
CCCCCCCCCCC[C@@H](C[C@@H]1OC(=O)[C@H]1CCCCCC)OC(=O)[C@H](CC(C)C)NC=O [Orlistat] |  | decrease |  |  |  | 79 ± 1.04 mg/dL | 0.06 ± 0.008 mg/dL
